“And” between values parts separate entries of the source, which are not always exact repeats. Identical values can stand only once. Like-named read-outs stand apart in the source and are kept apart here.

Results on one compound are retold here after patent US10258027B2, “Autodissemination of an insect-growth regulator for insect management” (Rutgers, The State University of New Jersey, priority 2010, dated 2019).

The test system of data set [1] is 3rd instar Ae. albopictus. Put plainly: Venereal transfer from contaminated males to females, larval bioassay. In kind it is in vivo, Aedes albopictus. As to conditions: venereally acquired pyriproxyfen transferred to water-holding containers. Here is the method: This experiment determined whether contaminated mosquitoes could transfer pyriproxyfen to uncontaminated individuals via mating behaviors. To ensure virginity, pupae were individually transferred to 50 ml centrifuge tubes until emergence, and then caged by gender before testing 5-7 days post-emergence. Adult males were exposed to pyriproxyfen-treated filter paper (8×10 cm Whatman No. 1) lining a 50 ml test tube. The paper was coated with 1.5 ml of corn oil as a sticker, blotted to remove excess oil, and then dusted with our pyriproxyfen powder formulation at 0.26 mg/cm of a.i. After ten minutes of exposure, males were transferred from the tube by aspirator to mating containers (450 ml capacity, 7.5 cm depth) covered with mosquito-proof mesh, and allowed to mate with uncontaminated females in pairs. […]
(§1) All insecticidal activity tests were conducted in adult emergence units—450 ml plastic containers with a screen-covered lid and 200 ml of water (water lost via evaporation was replaced before assay). […] At 2-day intervals, ground rat chow (30 mg/L) was provided as food, water lost due to evaporation was replenished, dead and emerged individuals were removed, and successful adult emergence was recorded. Incomplete emergence or adults with attached exuviae were recorded as dead.

Data set [2] has as its system 3rd instar Ae. albopictus. Put plainly: Room trial (31.1 m^3), single-phase station, larval bioassay. In kind it is in vivo, Aedes albopictus. Here is the method:
In the room trial, the test arena was scaled-up to a larger area with dimensions of 2.1 (W)×2.6 (H)×5.7 (L) m (31.1 m^3). A station was placed in the center of the room and ovicups with oak infusion and ovistrips were positioned at each corner 30 cm from the walls. Fifty gravid females were introduced for a five day test. The ovistrips and eggs were discarded and the water from each container was tested for insecticidal activity by larval bioassay, with four additional untreated cups as controls. Environmental conditions of 26-28° C., 60-75% RH, and 16L:8D photoperiod. Inhibition of emergence in the cage and room trials was analyzed against their respective controls with a t-test (P≤0.05).
All insecticidal activity tests were conducted in adult emergence units—450 ml plastic containers with a screen-covered lid and 200 ml of water (water lost via evaporation was replaced before assay). Each container held twenty 3rd instar Ae. albopictus. Test containers were incubated at 26° C. and 16L:8D photoperiod. At 2-day intervals, ground rat chow (30 mg/L) was provided as food, water lost due to evaporation was replenished, dead and emerged individuals were removed, and successful adult emergence was recorded. Incomplete emergence or adults with attached exuviae were recorded as dead.

For data set [3], the system named is Ae. albopictus. Put plainly: Attachment and persistence of IGR formulations assay, biphasic ADS (residue analysis and larval bioassay). In kind it is in vivo, Aedes albopictus. An excerpt:
A biphasic autodissemination station (ADS) was developed to enhance attraction and contamination of gravid mosquitoes based on the previous version as described in the prior examples with modifications on the transfer chamber, which provided the attracted gravid mosquitoes a unidirectional path and biphasic formulations. The ADS consists of two main parts comprising of a water reservoir at the bottom (adapted from previous version), above which was a transfer chamber with a unidirectional cone inserted in the transfer chamber (FIGS. 12, A & B). The reservoir could hold 600 mL water, which contains dried shredded oak leaves and other materials producing attractants to the gravid mosquitoes. There were overflow protection holes located in the upper part of the reservoir as described in the previous examples. The transfer chamber was constructed with a cardboard mailing tube (101.5×155 mm; Office Depot, N.J. USA), a cotton mesh fabric (39 openings/cm^2) secured within the chamber base by hot glue, a vertical fabric band [43] (20 mm width) glued on top portion inside the transfer chamber and a horizontal flat ring (20 mm width) mounted on the top of the chamber (FIG. 12, B) to provide the base for powder band [46]. […] The spacer size was determined by preliminary study in which the gap size allowed maximum contamination of mosquitoes and minimum number of mosquitoes trapped. […]

Data set [4] deals with Ae. albopictus. Put plainly: Larvicidal LC50 of pyriproxyfen. As to conditions: unpublished data.
The next data set relates to gravid female. In words: Serial transfer study, biphasic ADS. The format is in vivo. As to conditions: right after it exited the ADS.
For another data set, the system named is container mosquitoes. The note with it: modified sticky trap dusted with manually grained 5% pyriproxyfen powder; cited from earlier work.
Another data set deals with gravid mosquitoes. In words: Field studies, biphasic ADS. The format is in vivo.
In data set [5] the test system is Ae. albopictus. Put plainly: Green house assay, biphasic ADS. The format is in vivo, Aedes albopictus. Here is the method: (§2) Larval bioassays for pyriproxyfen were conducted in adult emergence units (450 ml plastic Deli containers lid on) under the standard laboratory conditions as described above under the heading, Mosquito colony and maintenance. Each container received twenty early 3rd instar Ae. albopictus in 200 ml sample water. Larvae were inoculated gently using dropper before placing the lid on. Five slots (4 cm each) were cut into the lid with a clean blade for aeration. Larval food (30 mg yeast/L) was provided twice a week which was freshly prepared every time. An additional lab control group was setup in triplicate using […] water. The bioassays were conducted in the sequence of lab control and treatment to minimize the chance of contamination. Water lost due to the evaporation during bioassay was replenished. Adult emergence and pupal mortality were accessed after there was no live lava or pupa in the water. Incomplete emergence or adult with attached exuvia was recorded as pupal death. If lab control had mortality higher than 20% in larval or pupal stages, results were discarded and the experiment was repeated. The experiments were conducted under environmental conditions of 26-28° C., 60-75% RH and LD 16:8 h.
Green house with 2 bays (8×5×2.5 m each) was used for the semi-field assay. One ADS was positioned in the center of each bay and 6 Deli cups (450 mL, black painted from outside) containing 250 mL water each were setup as shown in FIG. 5 and 10% sugar solution was provided in a plastic cup with cotton wick. In each bay, 100 gravid mosquitoes (2 days post blood feeding) were released after the setup of ADS and oviposition containers. The containers were collected and sent for lab bioassay as described above after the 5 day experiment. […] The temperature of 22-30° C. and relative humidity of 45-70% were recorded during the experiment. […]
Efficacy of pyriproxyfen was expressed as mean + standard error % of pupal mortality, which was corrected with control using Abbott's formula (Abbott W. S. (1925) J Econ Entomol; 18: 265-267). […]

In data set [6] the test system is Ae. albopictus. Put plainly: Room assay (31 m^3), biphasic dual treatment ADS. The format is in vivo, Aedes albopictus. Here is the method:
as §2
The test area was scaled up to a larger room (31 m^3) measuring 2.1 m in width, 5.7 m in length and 2.6 m in height. A station was placed in the center of the room and 10 Deli cups (450 mL, black painted from outside) containing 250 ml water were positioned 30 cm from the walls along each side of the room. Fifty gravid females were introduced for a 5-day test. The experiment was conducted under environmental conditions of 26-28° C., 60-75% RH and LD 16:8 h. The cups then were tested for pyriproxyfen activity using larval bioassay as described above. Ten additional untreated cups were included as controls. The pupal mortality in the room trials was analyzed against their respective controls with a t-test (P≤0.05).

Data set [7] concerns 3rd instar Ae. albopictus. Put plainly: Cage experiment: transfer from females to larval habitat, larval bioassay. In kind it is in vivo, Aedes albopictus. As to conditions: 2.2 m^3 cage, 50 gravid females, 5 days, all 36 ovicups; powder formulation on transfer mesh. As to the method: In the cage experiment, an autodissemination station equipped with a pyriproxyfen-treated transfer mesh and 450 ml of oak leaf infusion water was centered in a cubic 2.2 m^3 cage. A 360 ml capacity plastic cup was placed in each cage corner 15 cm from the walls. Each of the four cups was filled with 200 ml tap water and oviposition paper strips aligned as described above. Controls used a station with an untreated transfer mesh. Fifty gravid females were then introduced into the cage. After five days, the test was terminated, oviposition papers and eggs discarded, and containers were removed and the water assessed for pyriproxyfen transfer by larval bioassay (see ‘insecticide bioassays’ below). There were three treatment and one control cage per experiment and the experiment was repeated three times, providing a total of 36 test and 12 control ovicups for bioassay. […]
as §1

In data set [8] the test system is Ae. albopictus. The note with it: reported as low as; Gaugler 2012, Sihuincha 2005; cited from earlier work.
Another data set concerns Aedes aegypti. As to conditions: cited from earlier work.
Another data set deals with Ae. aegypti adults. As to conditions: pyriproxyfen dusted plastic containers, public cemetery; cited from earlier work.

Take `CC(COc1ccc(Oc2ccccc2)cc1)Oc1ccccn1` (stereo not drawn) [pyriproxyfen, 2-[1-methyl-2-(4-phenoxyphenoxy)ethoxy] pyridine]: the inhibition of emergence in [1] turned out to be 48.33±5.87%. For the same compound, the pupal mortality in [2] (31 m^3 room, previous (uniphase) station, 4 oviposition containers with 200 ml water) was 81%; in the data set on Ae. albopictus [3] (24 h post exposure) it was 96+1.7% and 96.7%; with gravid mosquitoes (field study, container with 250 ml water at 200 m) it was 100%. For the same compound, the “smallest reduction in adult emergence among ovicups” value in [2] (31.1 m^3 room) worked out at 75%. Moreover, the “inhibition of adult emergence” value in data set [2] (31.1 m^3 room, 50 gravid females, 5 days, 4 ovicups, powder formulation) is 81.25%±2.39; in data set [7], 100%. The emergence inhibition was 100% in the data set with Ae. albopictus [3] (up to 8 h post exposure, one mosquito per 250 mL water) and 42-98% in the data set with Ae. aegypti adults. Moreover, the LC50 with Ae. albopictus [4] is 0.012 ppb; in the data set with Ae. albopictus [8], 0.012 ppb; with Aedes aegypti (Aedes aegypti L.), 0.023 ppb; in the data set with Aedes aegypti (reported as low as, Gaugler 2012, Sihuincha 2005), 0.012 ppb. The “containers contaminated with 100% mortality by one gravid female” value with gravid female was “at least 3 containers”. In addition, the mortality in the data set with container mosquitoes is on record as 40-70%. Moreover, the containers contaminated result with gravid mosquitoes (different field study, 2012, variable pupal mortality) is “more than 60%”. For the same compound, in the data set with gravid mosquitoes (field study), the “distance of pyriproxyfen transfer” value amounted to 200 m. Moreover, in the data set with Ae. albopictus [5] (6 containers per bay (100 m^3), 100 gravid females, 5 days), the average pupal mortality is 57.1+11.4% and 57.1%. In addition, the “containers to which pyriproxyfen was transferred (contamination rate)” value in the data set on Ae. albopictus [5] (12 containers tested) was 91.7% and 91.6%. The “pupal mortality of the cups with low mortality” value in the data set with Ae. albopictus [5] (cups in area with human disturbance, low RH, less shade) is 0-30% and 10-30%. Besides, the “emergence inhibition in each cup” value with Ae. albopictus [6] (31 m^3 room, 50 gravid females, 10 oviposition cups) came to 100%. The “pupal mortality in each of the 10 oviposition cups” value in the data set on Ae. albopictus [6] (31.1 m^3 room, 50 gravid mosquitoes, 5 days) was found to be 100%; in the data set with Ae. albopictus [6] (second prototype (oil and powder bands on one plate)), 100%. In the data set with Aedes aegypti (times the activity of temephos), the “activity relative to temephos” value is 200 ×.
